Measurements: US20240262844A1, “PYRIDINIUM SALTS AND METHODS OF USE” (UNIVERSITY OF WYOMING, priority 2023, published 2024)
Values joined by “and” are separate entries in the source; they are usually repeats but may differ in a detail not shown here. Equal entries are not always repeated. Structures can show the parent of a compound that is named as a salt.

Experiments:
[1] = molecular target: T1, bovine carbonic anhydrase II (29 kDa) (Bos taurus, UniProt P00921); assay: Photochemical labeling of bovine carbonic anhydrase II (LC/MS, MS-MS); format: biochemical
T1 construct: Carbonic Anhydrase Isozyme II from bovine erythrocytes; purchased Sigma Aldrich; host or cells: bovine erythrocytes
T1 sequence (P00921 whole entry): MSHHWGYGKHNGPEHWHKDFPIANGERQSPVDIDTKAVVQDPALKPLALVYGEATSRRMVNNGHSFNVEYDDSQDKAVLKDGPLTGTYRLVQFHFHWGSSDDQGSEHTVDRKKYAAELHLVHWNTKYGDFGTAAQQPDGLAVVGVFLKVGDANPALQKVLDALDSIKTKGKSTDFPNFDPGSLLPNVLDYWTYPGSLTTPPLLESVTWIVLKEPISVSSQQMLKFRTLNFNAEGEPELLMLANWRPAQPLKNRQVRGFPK
Experimental: General Procedure B: Photochemical Irradiation of Peptides and Proteins: To a 2 mL Pyrex LC/MS vial (Thermo model #03-391-39) were sequentially added solutions containing the desired biomolecule, glutathione (GSH), pyridinium salt, and ammonium acetate (NH4OAc). The resulting solution was diluted to a final volume of 500 μL and then sparged using nitrogen for a minimum of 30 minutes prior to irradiation. The actively sparging solution was then placed in an EvoluChem™ PhotoRedOx Box photoreactor that was equipped with a Kessil, PR160 427 nm LED Lamp and was then irradiated (100% lamp intensity) for the designated time at room temperature while maintaining active sparging. The resultant reaction mixture was then analyzed directly by LC/MS. […]
Labeling of Bovine Carbonic Anhydrase II with Pyridinium Salt 2a (Bovine Carbonic Anhydrase II-2a Conjugate). […] The reaction mixture was directly analyzed by LC/MS using method A and was estimated to have proceeded with 34% conversion and a 4.5:1 mono:di labeled ratio. […]
General Trypsin Digest Protocol B: For non-cystine bridged labeled proteins, a standard trypsin digest was modified as follows. […] The digested mixture was analyzed directly by LC/MS and MS/MS using method C. […] The reduced product was analyzed by LC/MS-MS by selecting m/z=1108.4 for collision-induced dissociation (Collision energy=35 V). […]

[2] = system: Octreotide acetate (1 kDa); assay: Photochemical labeling of octreotide (LC/MS); format: biochemical; conditions: 10 μM octreotide acetate, 100 μM pyridinium salt, 30 minutes
Experimental: General Procedure B: Photochemical Irradiation of Peptides and Proteins: To a 2 mL Pyrex LC/MS vial (Thermo model #03-391-39) were sequentially added solutions containing the desired biomolecule, glutathione (GSH), pyridinium salt, and ammonium acetate (NH4OAc). The resulting solution was diluted to a final volume of 500 μL and then sparged using nitrogen for a minimum of 30 minutes prior to irradiation. The actively sparging solution was then placed in an EvoluChem™ PhotoRedOx Box photoreactor that was equipped with a Kessil, PR160 427 nm LED Lamp and was then irradiated (100% lamp intensity) for the designated time at room temperature while maintaining active sparging. The resultant reaction mixture was then analyzed directly by LC/MS. Analysis of labeling outcomes using LC/MS was performed either by extracted ion chromatogram intensities (method A) or by integrating the area under the peaks associated with peptide content (method B). These values were totaled, and estimated percentages were assigned according to relative intensities of peaks or ion counts.
Labeling of Octreotide with Pyridinium Salt 2a (Octreotide-2a Conjugate). […] The resulting reaction mixture was directly analyzed by LC/MS using method A to have proceeded with 88% conversion with mono labeling. […]

## COC(=O)N(C)[n+]1c(C)cc(-c2ccc3cc(OC)ccc3c2)cc1C [Pyridinium salt 2a, 1-((methoxycarbonyl)(methyl)amino)-4-(6-methoxynapthalen-2-yl)-2,6-dimethylpyridin-1-ium tetrafluoroborate]
[1]; 10 μM carbonic anhydrase II, 200 μM pyridinium salt, 300 μM glutathione, 60 minutes
  glutathionylation: No glutathionylation was observed
[1]; digestion/MS-MS
  identifiable site of modification: Trp-243
[2]; 20 mM NH4OAc pH 6.9, glutathione, 427 nm LED
  conversion: 88% and 93%
[2]; 427 nm
  degree of labeling: mono labeling
